Like-named read-outs stand apart in the source and are kept apart here.
Assays:
[1] = test system: pregnenolone level in NCI-H295R cells; test: cells; format: cell-based; settings: Homo sapiens, 72 h; for IC50: read-out: Pregnenolone level in H295R (Elisa) IC50 nM; for inhibition at 0.1 µM: read-out: Pregnenolone level in H295R (Elisa) inh.% 100 nM; for inhibition at 1 µM: read-out: Pregnenolone level in H295R (Elisa) inh.% 1000 nM
Description: 2. The purpose of the experimental study was intended to detect the pregnenolone level in the NCI-H295R cells by adopting the Enzyme linked immunosorbent assay (ELISA), so as to evaluate the inhibitory effects of the compounds on the pregnenolone level in the NCI-H295R cells.
The H295R cells were purchased from ATCC (CRL-2128), the cell complete medium contained DMEM: F12+ 10% FBS +0.00625 mg/ml insulin+0.00625 mg/mL transferrin+6.25 ng/mL selenium+1.25 mg/mL BSA+0.00535 mg/mL linoleic acid, and the cells were cultured in a 37°C, 5% CO2 incubator. The cells in the exponential growth phase were collected, and cultured in a cytokine-free medium (phenol red 1640-free +1% PS+10% css FBS+1.25 mg/mL BSA +0.00625 mg/mL insulin+0.00625 mg/mL transferrin+6.25 ng/mL selenium+0.00535 mg/mL linoleic acid) for three days. The cells in the exponential growth phase were collected on the third day. The cell suspension was adjusted with a cytokine-free medium to a corresponding concentration and plated at 60000 cells/well, with the volume being 90 µL/well. Subsequently, 10 µL of the compounds at different concentrations was added and the plate was incubated in a CO2 incubator for three days. After the incubation was completed, the cell culture supernatant was collected and centrifuged at 2°C-8°C at 800×g for 10 min. The resulting supernatant was collected. Determination was carried out according to the operation instructions for pregnenolone Elisa kit (Antibodies-A73791), and the OD450 signal was read.
2.1 Standard curve plotting. The standard concentration was taken as the abscissa and the OD450 value as the ordinate, the coordinate points of various standards were connected with a smooth line and a curve was fitted according to the four parameter logistic (4-PL) method.
2.2 Sample quantification: The corresponding concentration (CONC) of testosterone/pregnenolone in the sample was calculated using the absorbance value of the sample and the standard curve. According to formula (1), the inhibition rate of the compound at various concentrations was calculated, and S-shaped concentration curves were plotted and the IC50 values (i.e., concentration of the compound at which the inhibition rate was 50%) were calculated using a three parameter non-linear regression model in Graphpad Prim 8.0 software. CONC cpd was the concentration of the treated group, and CONC ctrl was the average concentration value of the solvent control group. Inhibition rate% = 100%−CONCcpd /CONCctrl × 100% [formula] Table 3 Inhibitory effects of compounds on pregnenolone level in NCI-H295R cells

[2] = Pharmacokinetic test in rats; format: in vivo; settings: rat, male SD rats, plasma; for Vd: read-out: Vdss
Description: 3.1 Experimental animals: Male SD rats (about 220 g, 6-8 weeks old, 6 rats/compound) were purchased from Chengdu Dossy Experimental Animals Co., Ltd.
3.2 Experimental design: On the day of the experiment, the SD rats were randomly grouped by body weight. […] Table 4 Administration information
Before and after the administration, 0.1 ml of blood was taken from the orbit of the animals under isoflurane anaesthesia and placed in an EDTAK2 centrifuge tube. The blood was centrifuged at 5000 rpm and 4°C for 10 min to collect plasma. […] Before analysis and detection, all samples were stored at -80°C. Table 5 Pharmacokinetic parameters of test compounds in plasma of rats

[3] = test system: testosterone level in NCI-H295R cells; test: cells; format: cell-based; settings: Homo sapiens, NCI-H295R, 72 h; for IC50: read-out: Testosterone level in H295R (Elisa) IC50 nM
Description: The purpose of the experimental study was intended to detect the testosterone level in the NCI-H295R cells by adopting the Enzyme linked immunosorbent assay (ELISA), so as to evaluate the inhibitory effects of the compounds on the testosterone level in the NCI-H295R cells.
The H295R cells were purchased from ATCC, the cell complete medium contained DMEM: F12+ 10% FBS +0.00625 mg/ml insulin +0.00625 mg/ml transferrin+6.25 ng/ml selenium +1.25 mg/ml BSA+0.00535 mg/ml linoleic acid, and the cells were cultured in a 37°C, 5% CO2 incubator. The cells in the exponential growth phase were collected, and cultured in a cytokine-free medium (phenol red 1640-free +1% PS+10% css FBS+1.25 mg/ml BSA +0.00625 mg/ml insulin + 0.00625 mg/ml transferrin+6.25 ng/ml selenium+0.00535 mg/ml linoleic acid) for three days. The cells in the exponential growth phase were collected on the third day. The cell suspension was adjusted with a cytokine-free medium to a corresponding concentration and plated at 60000 cells/well, with the volume being 90 µL/well. Subsequently, 10 µL of the compounds at different concentrations was added and the plate was incubated in a CO2 incubator for three days. After the incubation was completed, according to the operation instructions for testosterone Elisa kit (Beyotime, PT872), 50 µL of the cell culture supernatant was collected from each well and centrifuged at 500 g for 5 min at room temperature and then the resulting supernatant was collected. The samples were added to the corresponding wells at 25 µl/well, and then formulated horseradish peroxidase labelled testosterone was added at 75 µl/well. The mixture was fully mixed for 10 seconds. The reaction wells were sealed with a plate-sealing film (white) and the mixture was incubated at room temperature in the dark for 120 min. The plate was washed three times with a volume of 300 µl per well, and then placed onto thick absorbent paper and dried. Chromogenic reagent TMB solution was added at 100 µl/well. The reaction wells were sealed with a plate-sealing film (white) and the mixture was incubated at room temperature in the dark for 15-20 min. Subsequently, a termination solution was added at 50 µl/well, and after the mixture was fully mixed, the absorbance value OD450 was immediately measured. The absorbance readings were processed using Graphpad Prim 8.0 software and S-shaped concentration curves were plotted and the IC50 values were calculated using a four-parameter non-linear regression model.

[4] = Pharmacokinetic test in mice; format: in vivo; settings: mouse, male ICR mice, plasma; for Vd: read-out: Vdss
Description: 4.1. Experimental animals: Male ICR mice, 20-25 g, 6 mice/compound, were purchased from Chengdu Dossy Experimental Animals Co., Ltd.
4.2 Experimental design: on the day of the experiment, the ICR mice were randomly grouped according to their body weights. […] Table 6 Administration information
Before and after administration, 0.06 mL of blood was taken from the orbit under isoflurane anaesthesia and placed in an EDTAK2 centrifuge tube. The tube was centrifuged at 5000 rpm at 4°C for 10 min, and plasma was collected. […] Before analysis and detection, all samples were stored at -80°C, and the samples were quantitatively analysed by LC-MS/MS.

[5] = po, intragastric administration (10 mg/kg)
[6] = intravenous administration (2.5 mg/kg)
[7] = read-out: Testosterone level in H295R (Elisa) inh.% 100 nM
[8] = read-out: Testosterone level in H295R (Elisa) inh.% 1000 nM
[9] = read-out: Testosterone level in H295R (Elisa) inh.% 100 nM, 100 nM compound, NCI-H295R cells, three days incubation
[10] = read-out: Testosterone level in H295R (Elisa) inh.% 1000 nM, 1000 nM compound, NCI-H295R cells, three days incubation

| Structure (SMILES) | IC50 [1] [nM] | AUC(0-t) [2, 5] [ng·h/mL] | half-life [2, 5] [h] | AUC(0-t) [2, 6] [ng·h/mL] | clearance [2, 6] [mL/min/kg] | half-life [2, 6] [h] | Vd [2, 6] [L/kg] | IC50 [3] [nM] | inhibition at 0.1 µM [3, 7] [%] | inhibition at 1 µM [3, 8] [%] | AUC(0-t) [4, 5] [ng·h/mL] | half-life [4, 5] [h] | AUC(0-t) [4, 6] [ng·h/mL] | clearance [4, 6] [mL/min/kg] | half-life [4, 6] [h] | Vd [4, 6] [L/kg] | inhibition at 0.1 µM [1] [%] | inhibition at 1 µM [1] [%] | inhibition at 0.1 µM [3, 9] [%] | inhibition at 1 µM [3, 10] [%] |
| --- | --- | --- | --- | --- | --- | --- | --- | --- | --- | --- | --- | --- | --- | --- | --- | --- | --- | --- | --- | --- |
| O=C(N[C@H]1CC[C@H](/C=C/c2coc(CN3Cc4ccc(C(F)(F)F)cc4C3)cc2=O)CC1)C1CC1 [Compound 61] | 370 | 17400 | 3.03 | 5590 | 7.49 | 2.58 | 1.42 | 162 | 71 | 79 | 32100 | 3.47 | 6080 | 6.8 | 3.73 | 1.75 |  |  |  |  |
| O=C(N[C@H]1CC[C@H](/C=C/c2coc(CN3Cc4ccc(C(F)(F)F)cc4C3)cc2=O)CC1)C1CC(F)(F)C1 [Compound 88] | 94 |  |  |  |  |  |  | 59 | 76 | 86 | 23600 | 4.48 | 8550 | 4.82 | 4.49 | 1.54 | 41.6 | 64.5 |  |  |
| [2H]C([2H])([2H])n1cc(C(=O)N[C@H]2CC[C@H](/C=C/c3coc(CN4Cc5ccc(C(F)(F)F)cc5C4)cc3=O)CC2)cn1 [Compound 81] | 146 | 40500 | 4.29 | 12900 | 3.22 | 3.18 | 0.704 | 102 | 63 | 83 | 68500 | 5.38 | 22600 | 1.69 | 6.99 | 0.86 |  |  |  |  |
| O=C(N[C@H]1CC[C@H](/C=C/c2coc(CN3Cc4ccc(C(F)(F)F)cc4C3)cc2=O)CC1)[C@@H]1CC1(F)F [Compound 89] |  |  |  |  |  |  |  |  | 75 | 87 | 52500 | 8.11 | 8460 | 4.9 | 5.1 | 1.63 | 41.6 | 64.9 |  |  |
| [2H]C([2H])([2H])n1cc(C(=O)N[C@H]2CC[C@H](CCc3coc(CN4Cc5ccc(C(F)(F)F)cc5C4)cc3=O)CC2)cn1 [Compound 118] | 71 | 11400 | 4.41 | 5200 | 8.18 | 1.58 | 0.755 | 36 | 70 | 83 | 28000 | 3.45 | 7980 | 5.22 | 2.78 | 0.966 |  |  |  |  |
| CS(=O)(=O)N1CC(OC(=O)N2CCC(COc3coc(CN4Cc5ccc(C(F)(F)F)cc5C4)cc3=O)CC2)C1 [Compound 17] | 773 | 5240 | 2.72 | 1680 | 24.4 | 1.59 | 2.53 |  |  |  | 17800 | 2.42 | 4790 | 8.73 | 2.96 | 1.81 | 64.9 | 75.2 | 91.6 | 93.6 |
| O=C(N[C@H]1CC[C@H](COc2coc(CN3Cc4ccc(C(F)(F)F)cc4C3)cc2=O)CC1)C1CC1 [Compound 15] | 382 |  |  |  |  |  |  | 13 |  |  | 25400 | 3.19 | 6700 | 6.21 | 3.54 | 1.61 |  |  | 51 | 84.2 |
